# Values of other authors, collected in patent US12527979B2, “Treatment of HER3-mutated cancer by administration of anti-HER3 antibody-drug conjugate” (DAIICHI SANKYO COMPANY, LIMITED, priority 2018, dated 2026).
# Read-outs that look alike come from different tables or passages of the source.
# How the values were obtained:
# [1] = biological target: T1, topoisomerase I (Homo sapiens, UniProt P11387)
# T1 sequence (P11387 1-765): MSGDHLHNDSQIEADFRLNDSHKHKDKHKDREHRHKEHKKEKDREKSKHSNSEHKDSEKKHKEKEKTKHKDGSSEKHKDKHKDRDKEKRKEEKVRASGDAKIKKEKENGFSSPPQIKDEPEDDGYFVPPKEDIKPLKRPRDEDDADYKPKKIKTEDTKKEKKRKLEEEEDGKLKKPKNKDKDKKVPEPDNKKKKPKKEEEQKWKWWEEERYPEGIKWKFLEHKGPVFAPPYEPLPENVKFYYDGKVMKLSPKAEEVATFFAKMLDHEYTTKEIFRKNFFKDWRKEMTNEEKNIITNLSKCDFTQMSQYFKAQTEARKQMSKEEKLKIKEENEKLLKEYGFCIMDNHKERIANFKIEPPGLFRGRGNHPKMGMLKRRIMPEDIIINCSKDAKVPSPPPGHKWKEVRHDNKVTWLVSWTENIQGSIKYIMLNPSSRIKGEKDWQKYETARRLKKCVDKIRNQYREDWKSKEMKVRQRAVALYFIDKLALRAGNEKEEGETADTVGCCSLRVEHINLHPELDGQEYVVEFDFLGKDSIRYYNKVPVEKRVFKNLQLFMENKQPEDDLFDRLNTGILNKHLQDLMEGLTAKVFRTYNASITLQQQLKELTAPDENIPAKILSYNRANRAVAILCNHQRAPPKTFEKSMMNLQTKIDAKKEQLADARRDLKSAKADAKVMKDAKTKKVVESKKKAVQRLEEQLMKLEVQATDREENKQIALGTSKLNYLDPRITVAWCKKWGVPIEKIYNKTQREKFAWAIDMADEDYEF
# [2] = test system: HER3-mutated cancers; conditions: in vitro and in vivo, in situations where HER2 is overexpressed
# [3] = test system: HER3-mutated cancers; conditions: clinical studies
smiles,measurement,setting,value
CC[C@@]1(O)C(=O)OCc2c1cc1n(c2=O)Cc2c-1nc1cc(F)c(C)c3c1c2[C@@H](NC(=O)CO)CC3,topoisomerase I inhibitory effect,[1],confirmed to have a topoisomerase I inhibitory effect
CS(=O)(=O)CCNCc1ccc(-c2ccc3ncnc(Nc4ccc(OCc5cccc(F)c5)c(Cl)c4)c3c2)o1 [lapatinib],effectiveness against HER3-mutated cancers,[2],exhibited effectiveness
CCOc1cc2ncc(C#N)c(Nc3ccc(OCc4ccccn4)c(Cl)c3)c2cc1NC(=O)/C=C/CN(C)C [neratinib],effectiveness against HER3-mutated cancers,[3],no effectiveness
